From US7318939B2 (Vita Green Health Products Co., Ltd., priority 2006, dated 2008)
Where “and” joins values, the source holds several entries; their conditions need not be identical. Equal values may be shown once. Where a name gives a salt, the structure may show the parent alone.

Tested on: male CD1 mice
Assay: Anti-depressant activity: forced swimming test in mice
Assay type: in vivo
Conditions: 30 mg/kg ip
Source text: A depressed state can be induced in mice by forcing them to swim in a narrow cylinder from which they cannot escape. After an initial period of vigorous activity, the mice adopt a characteristic immobile posture which is readily identifiable.
Fifty-five male CD1 mice weighing 20-25 g at the start of the study were obtained from Charles River Laboratories Espafia (Barcelona, Spain). These mice underwent a prior acclimatization period of 6 days before the start of the experimental work, during which they underwent a veterinary examination in order to assure their good health.
The mice were allotted at random to five groups, each consisting of ten animals. The rest of the animals (one per group) were kept as reserve (these animals are not taken into account in the final results). The experimental design is described in the Table 7 below.
The mice began a fasting period of approximately 6 hours before starting the treatments. At the beginning of the test, the corresponding treatments were administrated by the assigned route at a volume of 10 mL/kg. The test item was administrated at three dose levels of 100, 200 and 300 mg/kg by oral route (gastric gavage or po). The reference item was administrated at the dose level of 30 mg/kg by intraperitoneal route or ip. The Control group only received the vehicle (water for injection) orally (po) by gastric gavage.
Six minutes after the administration of the treatments, each mouse was dropped into the cylinder containing water (forcing it to swim) and left there for 6 minutes, the testing time. The time of immobility of the animal was recorded. A mouse was considered immobile when it ceased struggling and remained floating motionless in the water making only those movements necessary to keep its head above water. […] Finally, once the test was over, the animals were sacrificed by cervical dislocation.

**Q.** For CN(C)CCCN1c2ccccc2CCc2ccccc21 [Imipramine HCl, Imipramine hydrochloride], which “% decrease versus Control (time of immobility)” value is on record?
**A.** 56.2%

**Q.** And the “Time of immobility (s) individual values” (animal no. 1-10, hydrochloride)?
**A.** 90 s and 140 s and 64 s and 51 s and 3 s and 91 s and 37 s

**Q.** And the “Time of immobility (s), mean” value (last 4 min of 6 min test, Mean ± SEM, n = 10, hydrochloride)?
**A.** 80.8 ± 13.14 s and 80.8 s
